From patent US12268683B2, “Compounds and methods for synergistic activation of M channels” (THE REGENTS OF THE UNIVERSITY OF CALIFORNIA, priority 2018, dated 2025)

Biological target: KCNQ2-W236L/KCNQ3 (Homo sapiens, UniProt O43525+O43526, W236L)
Experiment: TEVC of KCNQ2-W236L/KCNQ3 channels
Assay type: cell-based
Description: As previously described (12), we generated cRNA transcripts encoding human KCNA1, KCNE1, KCNE2, KCNE3, KCNQ1, KCNQ2, KCNQ3, KCNQ4 or KCNQ5 by in vitro transcription using the T7 polymerase mMessage mMachine kit (Thermo Fisher Scientific), after vector linearization, from cDNA sub-cloned into plasmids incorporating Xenopus laevis β-globin 5′ and 3′ UTRs flanking the coding region to enhance translation and cRNA stability. We quantified cRNA by spectrophotometry. We generated mutant KCNQ2 and KCNQ3 cDNAs by site-directed mutagenesis with a QuikChange kit (Stratagene, San Diego, Calif.) and prepared the cRNAs as above. We injected defolliculated stage V and VI Xenopus laevis oocytes (Ecocyte Bioscience, Austin, Tex. and Xenoocyte, Dexter, Mich., US) with KCNE and/or KCNQ cRNAs (5-20 ng). We incubated the oocytes at 16° C. in Barth's saline solution (Ecocyte) containing penicillin and streptomycin, with daily washing, for 3-5 days prior to two-electrode voltage-clamp (TEVC) recording.
We performed TEVC at room temperature using an OC-725C amplifier (Warner Instruments, Hamden, Conn.) and pClamp10 software (Molecular Devices, Sunnyvale, Calif.) 2-5 days after cRNA injection as described in the section above. For recording, we placed the oocytes in a small-volume oocyte bath (Warner) and viewed them with a dissection microscope. We sourced chemicals from Sigma unless otherwise stated. We studied effects of 1% cilantro extract and of nine compounds previously identified in cilantro extract. Vanillic acid and 3,4-Dihydroxybenzoic acid were each solubilized in 100% ethanol at a stock concentration of 100 mM; the other compounds were solubilized directly in bath solution. We initially screened for KCNQ2/3 channel activity using 100 μM concentrations of each of the nine components, then conducted dose responses where appropriate. […] We recorded currents in response to voltage pulses between −120 or −80 mV and +40 mV at 20 mV intervals from a holding potential of −80 mV, to yield current-voltage relationships, current magnitude, and for quantifying activation rate. We analyzed data using Clampfit (Molecular Devices) and Graphpad Prism software (GraphPad, San Diego, Calif., USA); values are stated as mean±SEM. […]
We generated cRNA transcripts encoding human KCNQ1, KCNQ2, KCNQ3, KCNQ4, KCNQ5 or GLRA1 (NM_001146040) (GenScript, Piscataway, N.J., USA) by in vitro transcription using the T7 polymerase mMessage mMachine kit (Thermo Fisher Scientific), after vector linearization, from cDNA sub-cloned into plasmids incorporating Xenopus laevis β-globin 5′ and 3′ UTRs flanking the coding region to enhance translation and cRNA stability. We quantified cRNA by spectrophotometry. […]

SMILES	effect on KCNQ2-W236L/KCNQ3 (in words)	potency reduction by KCNQ2-W236L relative to KCNQ3-W265L mutation [fold]	maximal shift in ΔV0.5activation ((E)-2-dodecenal) [mV]	EC50 (ΔV0.5activation, read-out: EC50 of (E)-2-dodecenal) [µM]
CS(=O)(=O)N(CC(=O)O)c1cccc(F)c1 [3FMSG]	independent of KCNQ2-W236			
CCCCCCCCC/C=C/C=O [(E)-2-dodecenal]		20	−9	5.07 ± 0.5
